Patent US20040247524A1, “Method of treatment of an inflammatory disorder with a Vanin-1 antagonist” (priority 2003, published 2004)
Like-named read-outs stand apart in the source and are kept apart here.

Key:
Vanin-1 = details: cited from earlier work
GSH [1] = assay: GSH levels in liver of treated mice; format: in vivo, mouse
Experimental: (§1) Indomethacin (Sigma) was administered at a dose of 25 mg/kg in 5% sodium carbonate to Vanin-1^−/− (n=5) and WT (n=5) mice in 2 SC injections at 12 h-interval. Mice were sacrificed 20 hrs after the first injection. […] Cystamine was given by gavage 3 times on day 1 and once on day 2 at the dose of 120 mg/kg. The dose was adjusted so as to not induce intestinal inflammation. Mice were sacrificed 5 hours after the last gavage. To evaluate the impact of cystamine on indomethacin treatment, Vanin-1^−/− (n=5) and WT (n=5) mice received cystamine preceding indomethacin injection. In a complement study, indomethacin-treated WT mice (n=5) were supplemented with N-acetylcysteine (NAC) to determine the relationship between GSH depletion and injury. The antioxidant was given by gavage (200 μl of a 150 mg/ml, pH 7 solution) three times a day, starting 12 hrs prior indomethacin treatment.
(§2) γ-GCS activity was determined by the method described by (Seelig, 1984). GSH levels were determined according to Tietze et al., (1969).

γ-GCS [2] = biological target: T1, γ-GCS (Mus musculus, UniProt P97494); assay: γ-GCS activity in liver of treated mice; format: in vivo
T1 construct: Determination of γ-GCS Activity and GSH Levels in Liver and Intestine; from tissue; host or cells: liver and intestine of WT and Vanin-1-/- BALB/c mice
T1 sequence (P97494 1-637): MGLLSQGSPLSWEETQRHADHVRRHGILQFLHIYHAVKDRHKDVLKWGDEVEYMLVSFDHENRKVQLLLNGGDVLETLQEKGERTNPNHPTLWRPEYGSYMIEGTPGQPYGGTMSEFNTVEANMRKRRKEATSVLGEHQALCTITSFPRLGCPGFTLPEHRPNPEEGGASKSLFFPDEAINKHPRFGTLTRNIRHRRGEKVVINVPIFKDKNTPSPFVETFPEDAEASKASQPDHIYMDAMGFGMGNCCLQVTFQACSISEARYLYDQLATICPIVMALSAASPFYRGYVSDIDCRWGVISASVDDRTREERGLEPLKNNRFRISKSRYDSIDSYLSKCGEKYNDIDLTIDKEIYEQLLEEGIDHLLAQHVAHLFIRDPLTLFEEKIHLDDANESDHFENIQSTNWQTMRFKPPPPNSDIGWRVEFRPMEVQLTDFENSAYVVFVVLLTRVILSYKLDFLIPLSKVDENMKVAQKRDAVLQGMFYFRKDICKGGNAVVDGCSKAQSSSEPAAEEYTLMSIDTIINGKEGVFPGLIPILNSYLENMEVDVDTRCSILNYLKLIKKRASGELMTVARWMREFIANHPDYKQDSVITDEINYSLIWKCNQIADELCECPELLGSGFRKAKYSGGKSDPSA
T1 sequence (O09172 1-274 partner): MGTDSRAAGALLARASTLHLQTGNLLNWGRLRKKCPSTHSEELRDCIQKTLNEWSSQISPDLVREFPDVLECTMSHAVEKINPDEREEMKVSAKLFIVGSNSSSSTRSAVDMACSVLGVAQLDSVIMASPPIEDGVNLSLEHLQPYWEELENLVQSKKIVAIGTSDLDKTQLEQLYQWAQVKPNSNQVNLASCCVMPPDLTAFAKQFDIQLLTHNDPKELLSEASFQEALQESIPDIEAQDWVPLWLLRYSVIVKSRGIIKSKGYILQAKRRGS
Experimental: as §1, §2

GSH [3] = assay: GSH levels in intestine of treated mice; format: in vivo, mouse
Experimental: as §1, §2

γ-GCS [4] = biological target: T1, γ-GCS; assay: γ-GCS activity in intestine of treated mice; format: in vivo
Experimental: as §1, §2

[5] = system: MIP-2, iNOS, COX-2, and COX-1 mRNAs; assay: Semi-quantitative RT-PCR of inflammatory factors in jejunum; format: in vivo, mouse
Experimental: as §1
Total cellular RNA was isolated from jejunum samples of indomethacin-treated mice, by guanidinium thiocyanate phenol-chloroform extraction.

MPO = assay: Intestinal myeloperoxidase (MPO) activity; format: in vivo, mouse; details: jejunum, after indomethacin treatment
Experimental: as §1, with “treatment. 3-cm intestinal samples taken in the most injured part, i.e. the colon of S. mansoni-infected mice and the jejunum of indomethacin-treated mice. Samples were homogenized in 0.5% hexadecyltrimethyl-ammonium bromide. MPO activity was determined as described previously (Liaudet, 2000).” for “treatment.”

jejunum = assay: Histological examination of intestinal injury; format: in vivo, mouse; details: following indomethacin treatment
Experimental: as §1
After sacrifice, jejunum of the indomethacin-treated mice were removed, formalin-fixed and paraffin-embedded. They were cut to 4-μm thickness and stained with hematoxylin-phloxine-saffron. Immunohistochemistry was performed on jejunum cryosections using the anti-Vanin-1 mAb H202-407 modified from Aurrand-Lions et al. (Aurrand-Lions, 1996).

[6] = as described by Pitari et al. (1994)
[7] = control as in indomethacin-treated animals
[8] = cystamine administered without indomethacin
[9] = jejunum, Vanin-1−/− mice, indomethacin 2 x 25 mg/kg SC
[10] = NAC given to indomethacin-treated mice

In the case of `CCN1C(=O)C=CC1=O` [N-ethyl maleimide], the “type of Vanin-1 (pantetheinase) inhibition” value (Vanin-1; [6]) is given as “irreversible inhibition”.
With `NCCSSCCN` [Cystamine, cystamine] the GSH (GSH [1]; KO (Vanin-1−/−) mice) was 5.55 ± 1.20, the GSH (GSH [1]; WT mice) was 5.36 ± 1.15 and the “GSH levels, change” value (GSH [1]; [7]) was “dramatically reduced”. For the same molecule, the γ-GCS (γ-GCS [2]; KO (Vanin-1−/−) mice) was 11.2 ± 0.58, the γ-GCS (γ-GCS [2]; WT mice) was 10.8 ± 0.63 and the “γ-GCS activity, change” value (γ-GCS [2]; [7]) was “dramatically reduced”. For the same molecule, the GSH (GSH [3]; KO (Vanin-1−/−) mice) was 1.0 ± 0.05, the GSH (GSH [3]; WT mice) was 0.90 ± 0.12 and the “intestinal GSH levels, change” value (GSH [3]; cystamine administration) was “reduced”. The γ-GCS (γ-GCS [4]; KO (Vanin-1−/−) mice) was 21.5 ± 2.4, the γ-GCS (γ-GCS [4]; WT mice) was 20.2 ± 1.2 and the “COX-2 mRNA” value [5, 8] was “moderate upregulation”. For the same molecule, the “iNOS and MIP-2 mRNAs” value [5, 8] was “did not change”, the “mRNA expression of inflammatory factors” value ([5]; cystamine given to indomethacin-treated Vanin-1−/− mice) was “restored mRNA expression to WT levels” and the “type of Vanin-1 (pantetheinase) inhibition” value (Vanin-1; [6]) was “reversible inhibition”.
`COc1ccc2c(c1)c(CC(=O)O)c(C)n2C(=O)c1ccc(Cl)cc1` [Indomethacin, indomethacin] gave a GSH (GSH [1]; KO (Vanin-1−/−) mice) of 16.6 ± 1.26, a GSH (GSH [1]; WT mice) of 9.50 ± 1.44 and a γ-GCS (γ-GCS [2]; KO (Vanin-1−/−) mice) of 37.9 ± 3.33. For the same molecule, the γ-GCS (γ-GCS [2]; WT mice) was 23.4 ± 0.72, the “γ-GCS activity, change” value (γ-GCS [2]; following indomethacin treatment) was “increased” and the GSH (GSH [3]; KO (Vanin-1−/−) mice) was 1.37 ± 0.24. The GSH (GSH [3]; WT mice) was 0.56 ± 0.08, the γ-GCS (γ-GCS [4]; KO (Vanin-1−/−) mice) was 23.7 ± 2.63 and the γ-GCS (γ-GCS [4]; WT mice) was 18.4 ± 2.18. For the same molecule, the “COX-2 and iNOS mRNAs” value [5, 9] was “barely amplified”, the “MIP-2 mRNA” value [5, 9] was “undetectable” and the “COX-2, iNOS and MIP-2 mRNAs” value ([5]; jejunum, WT mice, indomethacin 2 x 25 mg/kg SC) was “sharp augmentation”. For the same molecule, the “Intestinal MPO activity” value (MPO) was “dramatically enhanced”, the “Histology of intestinal injury” value (jejunum; Vanin-1−/− mice) was “appeared normal” and the “Histology of intestinal injury” value (jejunum; WT mice) was “flattened mucosal villi”.
For `CC(=O)N[C@@H](CS)C(=O)O` [NAC, N-acetylcysteine], the “GSH levels, effect” value (GSH [3]; [10]) was “no marked effect” and the “γ-GCS activity, effect” value (γ-GCS [4]; [10]) was “no marked effect”.
For `c1cc(SSc2ccncc2)ccn1` [4,4′-dithiodipyridine], the “type of Vanin-1 (pantetheinase) inhibition” value (Vanin-1; [6]) is given as “reversible inhibition”.
For `O=C(O)CI` [iodoacetate], the “type of Vanin-1 (pantetheinase) inhibition” value (Vanin-1) is given as “irreversible inhibition”.
In the case of `NC(=O)CI` [iodoacetamide], the “type of Vanin-1 (pantetheinase) inhibition” value (Vanin-1; [6]) is listed as “irreversible inhibition”.
For `OCCSSCCO` [oxidized mercaptoethanol], the “type of Vanin-1 (pantetheinase) inhibition” value (Vanin-1; [6]) is given as “reversible inhibition”.
For `O=C(O)c1cc(SSc2ccc([N+](=O)[O-])c(C(=O)O)c2)ccc1[N+](=O)[O-]` [5,5′-dithiobis(2-nitrobenzoic acid)], the “type of Vanin-1 (pantetheinase) inhibition” value (Vanin-1; [6]) is given as “reversible inhibition”.
